# Data reported in PMC6100008, “Fingerprint-Based Machine Learning Approach to Identify Potent and Selective 5-HT2BR Ligands” (Molecules : A Journal of Synthetic Chemistry and Natural …, 2018).
# Where two headings read alike, the source gives them in different places.
# Columns and labels:
# [1] = biological target: 5-HT1B; details: Figure 1; ref 21 (compound 1), ChEMBL (compounds 2, 3); cited from earlier work
# [2] = biological target: 5-HT2B; design: method as in earlier work; details: Figure 1; ref 21 (1), ChEMBL (2, 3), ref 24 (5), ref 26 (7); cited from earlier work
# [3] = test system: 5-HT2B; details: cited from earlier work
# [4] = test system: 5-HT2B; design: method as in PMID 8709108; details: Figure 1; cited from earlier work
# [5] = biological target: human 5-HT2B receptor (Homo sapiens, UniProt P41595); assay: Competition binding in human 5-HT2B receptor ([3H]-LSD, CHO-5-HT2B membranes); details: for 5-HT2BR affinity range in words: conclusions; for inhibition at 10 µM: read-out: 5-HT2B (%) percentage of inhibition
# Chain of human 5-HT2B receptor (P41595 whole entry): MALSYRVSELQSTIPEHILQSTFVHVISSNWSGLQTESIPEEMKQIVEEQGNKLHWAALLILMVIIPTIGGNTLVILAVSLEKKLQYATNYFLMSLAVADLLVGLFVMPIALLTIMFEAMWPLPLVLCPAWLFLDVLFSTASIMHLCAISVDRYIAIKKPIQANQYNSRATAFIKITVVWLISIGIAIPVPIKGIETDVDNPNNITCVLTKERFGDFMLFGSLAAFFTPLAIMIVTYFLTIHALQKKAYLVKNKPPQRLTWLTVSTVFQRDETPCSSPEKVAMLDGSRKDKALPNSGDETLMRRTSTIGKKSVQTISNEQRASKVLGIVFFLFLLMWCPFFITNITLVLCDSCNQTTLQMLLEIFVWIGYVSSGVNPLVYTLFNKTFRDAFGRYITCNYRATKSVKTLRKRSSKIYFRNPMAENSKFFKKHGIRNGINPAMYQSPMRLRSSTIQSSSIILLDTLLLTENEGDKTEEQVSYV
# [6] = biological target: T1, human 5-HT1B receptor (Homo sapiens, UniProt P28222); assay: Competition binding in human 5-HT1B receptor ([3H]-GR125743, Hela-5-HT1B membranes); details: for Ki: measured if inhibition at 10 µM exceeded 50%, mean ± SD of three assays; for inhibition at 10 µM: 10 µM compound, mean ± SD of three independent assays with duplicate measurements, read-out: 5-HT1B (%) percentage of inhibition
# T1 construct: expressed in transfected cells; host or cells: HeLa (Hela-5-HT1B cell line, Lot A001/14-11-2011)
# T1 sequence (P28222 whole entry): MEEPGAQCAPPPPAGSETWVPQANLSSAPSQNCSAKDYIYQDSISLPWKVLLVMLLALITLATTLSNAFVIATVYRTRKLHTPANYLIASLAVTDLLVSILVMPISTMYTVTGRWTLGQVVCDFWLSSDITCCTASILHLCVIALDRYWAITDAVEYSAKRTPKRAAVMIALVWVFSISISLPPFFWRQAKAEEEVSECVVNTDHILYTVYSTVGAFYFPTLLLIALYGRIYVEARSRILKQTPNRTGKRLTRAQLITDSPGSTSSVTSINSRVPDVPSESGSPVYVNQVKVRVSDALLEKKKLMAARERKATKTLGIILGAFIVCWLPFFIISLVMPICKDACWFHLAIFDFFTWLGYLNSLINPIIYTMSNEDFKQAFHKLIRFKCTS
# [7] = biological target: T2, human serotonin 5-HT1AR (Homo sapiens, UniProt P08908); assay: Competition binding in human 5-HT1A receptor ([3H]-8-OH-DPAT, HEK293 membranes); details: 5-HT panel screening; mean ± SD
# T2 construct: expressed in transfected cells
# T2 sequence (P08908 1-422): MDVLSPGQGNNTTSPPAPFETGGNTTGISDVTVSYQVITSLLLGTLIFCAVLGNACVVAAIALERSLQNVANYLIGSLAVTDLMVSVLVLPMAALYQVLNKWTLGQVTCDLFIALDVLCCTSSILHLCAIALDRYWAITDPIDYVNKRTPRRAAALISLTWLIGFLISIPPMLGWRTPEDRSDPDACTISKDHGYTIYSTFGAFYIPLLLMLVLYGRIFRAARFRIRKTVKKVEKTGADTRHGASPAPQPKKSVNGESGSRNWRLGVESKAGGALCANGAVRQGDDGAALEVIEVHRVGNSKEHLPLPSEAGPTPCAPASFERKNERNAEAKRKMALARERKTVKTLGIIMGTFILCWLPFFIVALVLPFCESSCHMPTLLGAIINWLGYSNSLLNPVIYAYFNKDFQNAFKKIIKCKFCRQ
# [8] = biological target: T3, human serotonin 5-HT2A receptor (Homo sapiens, UniProt P28223); assay: Competition binding in human 5-HT2A receptor ([3H]-Ketanserin, HEK293 membranes); details: 5-HT panel screening; mean ± SD
# T3 construct: expressed in transfected cells
# T3 sequence (P28223 whole entry): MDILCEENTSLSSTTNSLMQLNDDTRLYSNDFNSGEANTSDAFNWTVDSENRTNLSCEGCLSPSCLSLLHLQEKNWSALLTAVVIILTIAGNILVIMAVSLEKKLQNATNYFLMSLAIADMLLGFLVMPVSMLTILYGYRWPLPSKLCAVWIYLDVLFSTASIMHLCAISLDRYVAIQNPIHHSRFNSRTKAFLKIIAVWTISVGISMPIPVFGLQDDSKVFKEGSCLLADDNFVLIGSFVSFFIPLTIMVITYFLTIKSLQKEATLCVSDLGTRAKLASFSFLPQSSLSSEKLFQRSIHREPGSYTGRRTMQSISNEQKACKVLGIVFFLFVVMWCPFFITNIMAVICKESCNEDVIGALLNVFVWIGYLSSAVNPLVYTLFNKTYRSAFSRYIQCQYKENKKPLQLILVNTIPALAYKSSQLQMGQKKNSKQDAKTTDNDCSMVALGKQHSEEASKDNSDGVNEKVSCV
# [9] = biological target: T4, human serotonin 5-HT7b receptor (Homo sapiens, UniProt P34969); assay: Competition binding in human 5-HT7 receptor ([3H]-5-CT, HEK293 membranes); details: 5-HT panel screening; mean ± SD
# T4 construct: expressed in transfected cells
# T4 sequence (P34969 1-432): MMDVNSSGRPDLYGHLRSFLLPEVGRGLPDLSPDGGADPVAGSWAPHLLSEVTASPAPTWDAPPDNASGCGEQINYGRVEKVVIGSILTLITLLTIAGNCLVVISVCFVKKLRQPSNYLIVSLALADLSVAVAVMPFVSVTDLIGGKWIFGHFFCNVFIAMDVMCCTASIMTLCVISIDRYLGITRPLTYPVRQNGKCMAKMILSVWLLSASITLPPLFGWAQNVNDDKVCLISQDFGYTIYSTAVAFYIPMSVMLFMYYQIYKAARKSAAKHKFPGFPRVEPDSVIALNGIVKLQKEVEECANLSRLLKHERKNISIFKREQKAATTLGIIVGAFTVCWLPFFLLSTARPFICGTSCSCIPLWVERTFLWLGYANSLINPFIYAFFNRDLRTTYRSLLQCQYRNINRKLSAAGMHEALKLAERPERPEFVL
# [10] = biological target: T5, human serotonin 5-HT6 receptor (Homo sapiens, UniProt P50406); assay: Competition binding in human 5-HT6 receptor ([3H]-LSD, HEK293 membranes); details: 5-HT panel screening; mean ± SD
# T5 construct: expressed in transfected cells
# T5 sequence (P50406 whole entry): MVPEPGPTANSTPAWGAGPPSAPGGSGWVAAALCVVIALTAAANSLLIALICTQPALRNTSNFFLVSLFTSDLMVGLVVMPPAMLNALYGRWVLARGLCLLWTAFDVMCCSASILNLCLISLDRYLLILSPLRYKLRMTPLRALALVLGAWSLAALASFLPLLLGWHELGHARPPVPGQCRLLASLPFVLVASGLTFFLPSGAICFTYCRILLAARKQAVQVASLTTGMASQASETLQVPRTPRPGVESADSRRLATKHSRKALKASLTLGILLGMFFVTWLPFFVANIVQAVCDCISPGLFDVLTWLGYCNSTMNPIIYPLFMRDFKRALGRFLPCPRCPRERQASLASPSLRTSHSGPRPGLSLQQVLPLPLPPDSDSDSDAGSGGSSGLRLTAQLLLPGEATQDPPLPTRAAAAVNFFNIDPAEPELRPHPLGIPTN
structure (smiles),measurement,setting,value
CCOC(=O)c1cccc(NC2=NC(N)=NC3(CCCCC3)N2)c1 [Compound 1],pKi (5-HT1B),[1],> 5
same,pKi (5-HT2B),[2],8.14
COc1cc(N)c(Cl)cc1C(=O)NC1CCN(CCCOc2ccc(F)cc2)CC1OC (centres unmarked) [Compound 2],pKi (5-HT1B),[1],> 5.3
CCCCN1CCC(COC(=O)c2cc(F)c(N)c3c2OCCO3)CC1 [Compound 3],pKi (5-HT1B),[1],> 5
same,pKi (5-HT2B),[2],6.78
"CC(C)c1cc(-c2ccc(F)c3ccccc23)nc(N)n1 [Compound 4, RS-127445]",IC50,"[3]; Figure 1, read-out: IC50 (5-HT2B)",0.7 nM
"Cc1cc([N+](=O)[O-])c(N2CCN(Cc3ccccc3)CC2)cc1N [Compound 5, EGIS-7625]",pKi (5-HT2B),[2],9.0
"COc1ccc(CC2NCCc3c2[nH]c2ccccc32)cc1OC (centres unmarked) [Compound 6, LY-23728]",pKB (5-HT2B),[4],9.17
"Cn1ccc2cc(NC(=O)Nc3cccnc3)ccc21 [Compound 7, SB-200646A]",pKi (5-HT2B),[2],7.5
Cc1c(C(=O)N2CCC(c3ncc[nH]3)CC2)n[nH]c1-c1ccc(Cl)cc1 [Compound 8],Ki,[5],0.3 ± 0.07 nM
same,5-HT2BR affinity range in words,[5],subnanomolar
same,selectivity for 5-HT2BR versus 5-HT1BR,[5]; ratio of 5-HT1BR and 5-HT2BR affinity,ten thousand-fold
same,Ki,[6],2930 ± 321 nM
same,Ki,[7],> 20 µM
same,Ki,[8],> 20 µM
same,Ki,[9],> 20 µM
same,Ki,[10],13.2 ± 1.5 µM
Cc1c(-c2ccccc2)sc(NC(=O)Cn2c(=O)cnc3ccccc32)c1C(=O)N1CCCCC1 [Compound 9],Ki,[5],235 ± 15.9 nM
same,5-HT2BR affinity range in words,[5],submicromolar
same,Ki,[6],2100 ± 622 nM
same,Ki,[7],> 20 µM
same,Ki,[8],> 20 µM
same,Ki,[9],> 20 µM
same,Ki,[10],7.5 ± 0.9 µM
Cn1c(CN2CCCCC2)nnc1C1CCCN(CCc2ccccc2)C1 (centres unmarked) [Compound 10],Ki,[5],2610 ± 422 nM
same,5-HT2BR affinity range in words,[5],low micromolar
same,inhibition at 10 µM,[6],7 ± 4%
Cc1cccc2[nH]c(C3CCN(C(=O)c4cnn[nH]4)CC3)nc12 [Compound 11],inhibition at 10 µM,[5],40 ± 3%
same,inhibition at 10 µM,[6],12 ± 4%
COc1cccc(-c2n[nH]cc2C(=O)N2CCCC(c3cc(O)ncn3)C2)c1 (centres unmarked) [Compound 12],inhibition at 10 µM,[5],36 ± 4%
same,inhibition at 10 µM,[6],7 ± 1%
Cc1ncc(C(=O)N2CCC(c3nccn3Cc3ccccc3)CC2)c(=O)[nH]1 [Compound 13],inhibition at 10 µM,[5],34 ± 4%
same,inhibition at 10 µM,[6],19 ± 3%
CCOC(=O)c1c(CN2CCCCC2)n(C)c2c1cc(OC(C)=O)c1c2c(-c2ccccc2)nn1-c1ccccc1 [Compound 14],inhibition at 10 µM,[5],34 ± 4%
same,inhibition at 10 µM,[6],26 ± 4%
COc1ccc2c(c1)NC1(CCN(C(=O)c3ccc(C)c(C)c3)CC1)c1cccn1-2 [Compound 15],inhibition at 10 µM,[5],31 ± 4%
same,inhibition at 10 µM,[6],28 ± 3%
CCc1ccc(NC(=O)c2ccc(-c3noc(C4CCN(C(=O)c5ccc(F)cc5)CC4)n3)cc2)cc1 [Compound 16],inhibition at 10 µM,[5],24 ± 4%
same,inhibition at 10 µM,[6],1 ± 1%
O=C(c1ccc(-c2ccccc2)cc1)N1CCC(c2nc3ccccc3[nH]2)CC1 [Compound 17],IC50,"[3]; Figure 6, closest literature analogue, read-out: IC50 (5-HT2BR)",2.4 nM
"COc1ccc(NC(=O)c2ccc(-c3ccncc3)c(C)c2)cc1N1CCN(C)CC1 [[^3H]-GR125743, reference compound]",Kd,"[6]; radioligand used at […], read-out: KD of radioligand at 5-HT1BR",0.74 nM
